Assay results as given in PMC9977398, “Next-generation membrane-active glycopeptide antibiotics that also inhibit bacterial cell division” (Chemical Science, 2023).

Columns and labels:
B. subtilis = assay: Cytoplasmic membrane depolarization assay, DiSC3(5); assay type: cell-based; conditions: exponentially growing B. subtilis, 10 μM
Source text: The membrane disruption properties of both VanQbiph (4) and VanQAmC10 (8) were studied to correlate the extent of membrane perturbation and bactericidal activity against both exponentially growing and non-growing bacterial cells. Their ability to depolarize the membrane was monitored using the fluorescent probe DiSC3(5) (3,3′-dipropylthiadicarbocyanine iodide). DiSC3(5) is sensitive to the membrane potential and as it accumulates in the membrane, the fluorescence intensity decreases due to self-quenching. Upon dissipation of membrane potential, an increase in fluorescence is observed due to DiSC3(5) being dispersed in the solution. […]
were added to it the wells containing bacterial suspension. Fluorescence has monitored at excitation wavelength of 535 nm (slit width: 10 nm) and emission wavelength of 617 nm (slit width: 5 nm). As a measure of inner membrane permeabilization the uptake of PI was monitor by the increase in fluorescence for 30-50 min. […]
Mid log phase MRSA were harvested (3500 rpm, 5 min), washed in 5 mM glucose and 5 mM HEPES buffer (pH 7.2) in 1:1 ratio and resuspended in 5 mM HEPES buffer, 5 mM glucose and 100 mM KCl solution in 1:1:1 ratio. […] The fluorescence was monitored at excitation wavelength of 622 nm and emission wavelength of 670 nm. […] As a measure of membrane depolarization fluorescence was monitor for another 35 min. […]

biofilms of MRSA = assay: Disruption of mature biofilms, confocal microscopy; assay type: cell-based, S. aureus; conditions: 20 μM; for thickness of biofilm after treatment: 24 h, untreated 11.8 μm
Source text: Another growing challenge in treating bacterial infections is the formation of biofilms, which are recalcitrant to antibiotic treatment.[29] Most antibiotics including vancomycin are rendered ineffective against biofilms consisting of both dividing and non-dividing cells, majorly due to their inability to penetrate through the extracellular polymeric matrix. Thus, it is important to develop compounds that eradicate biofilms as well as planktonic cells. Untreated biofilms of MRSA grew to a thickness of 11.8 μm (Fig. S3A ^†). The vancomycin-treated biofilms remained intact with thickness similar to the untreated control. […]
were added to it the wells containing bacterial suspension. Fluorescence has monitored at excitation wavelength of 535 nm (slit width: 10 nm) and emission wavelength of 617 nm (slit width: 5 nm). As a measure of inner membrane permeabilization the uptake of PI was monitor by the increase in fluorescence for 30-50 min. For assessing depolarisation against stationary phase cells of MRSA ATCC 33591, cells were grown to the stationary phase for 16 h. The culture was then diluted to an OD600 of 0.2 and the depolarisation assays was performed as described. The experiments were performed three times independently in duplicates and the graph is representative of the results from all experiments.
Cytoplasmic membrane depolarization assay5
Mid log phase MRSA were harvested (3500 rpm, 5 min), washed in 5 mM glucose and 5 mM HEPES buffer (pH 7.2) in 1:1 ratio and resuspended in 5 mM HEPES buffer, 5 mM glucose and 100 mM KCl solution in 1:1:1 ratio. Then 2 μM of 3, 3′-Dipropylthiadicarbocyanine iodide (DiSC3(5)) was added to bacterial suspension and pre-incubated for 45 min. The fluorescence was monitored at excitation wavelength of 622 nm and emission wavelength of 670 nm. Then 20 μL of test compound and vancomycin were added to black well plates containing bacterial suspension and DiSC3(5) after 2-4 min of fluorescence measurement. As a measure of membrane depolarization fluorescence was monitor for another 35 min. […]

SMILES | time to membrane depolarisation post-treatment (B. subtilis) | thickness of biofilm after treatment (biofilms of MRSA) | reduction of thickness of biofilms (biofilms of MRSA; mature MRSA biofilm)
CNC(CC(C)C)C(=O)NC1C(=O)NC(CC(N)=O)C(=O)NC2C(=O)NC3C(=O)NC(C(=O)NC(C(=O)NCCC[N+](C)(C)Cc4ccc(-c5ccccc5)cc4)c4cc(O)cc(O)c4-c4cc3ccc4O)C(O)c3ccc(c(Cl)c3)Oc3cc2cc(c3OC2OC(CO)C(O)C(O)C2OC2CC(C)(N)C(O)C(C)O2)Oc2ccc(cc2Cl)C1O (centres unmarked) [VanQbiph (4)] | ≤ 2 min | – | –
CCCCCCCCCCNC(=O)C[N+](C)(C)CCCNC(=O)C1NC(=O)C2NC(=O)C(NC(=O)C3NC(=O)C(CC(N)=O)NC(=O)C(NC(=O)C(CC(C)C)NC)C(O)c4ccc(c(Cl)c4)Oc4cc3cc(c4OC3OC(CO)C(O)C(O)C3OC3CC(C)(N)C(O)C(C)O3)Oc3ccc(cc3Cl)C2O)c2ccc(O)c(c2)-c2c(O)cc(O)cc21 (centres unmarked) [VanQAmC10 (8)] | ≤ 2 min | 7.4 μm | about 40%
CN[C@H](CC(C)C)C(=O)N[C@H]1C(=O)N[C@@H](CC(N)=O)C(=O)N[C@H]2C(=O)N[C@H]3C(=O)N[C@H](C(=O)N[C@H](C(=O)O)c4cc(O)cc(O)c4-c4cc3ccc4O)[C@H](O)c3ccc(c(Cl)c3)Oc3cc2cc(c3O[C@@H]2O[C@H](CO)[C@@H](O)[C@H](O)[C@H]2O[C@H]2C[C@](C)(N)[C@H](O)[C@H](C)O2)Oc2ccc(cc2Cl)[C@H]1O [Vancomycin, reference compound] | – | 10.1 μm | –
